Laboratory results published in US20050070872A1, “Blood bag system and method of inactivating pathogenic microorganisms” (priority 2001, published 2005).
Read-outs that look alike come from different tables or passages of the source.

Legend:
[1] = tested on: Simian Virus 40 (SV-40); test: Virus inactivation of SV-40 in RC-MAP (Example 1), TCID50 on CV-1 cells; assay type: cell-based; settings: for inactivation effect (positive control TCID50 minus inactivated solution TCID50): 7 hours; for TCID50 of the inactivated solution: room temperature (in the dark) 7 hours, positive control 6.5 log10
Protocol: In a 400-mL CPDA blood bag in the blood bag system shown in FIG. 1, RC-MAP (concentrated erythrocyte preparation) was prepared from blood collected from healthy humans. Thereafter, 2 mL of RC-MAP was sampled in a 15-mL centrifuging tube aseptically, and 2 mL of 10^8 TCID50/mL (50% infection end point) SV-40 was added thereto, followed by gentle stirring. […] After completion of the inactivation, the inactivated solution was centrifuged at 3,000 rpm for 1 minute and the supernatant was used for the evaluation of virus inactivation.
(§1) Evaluation of virus inactivation was performed by TCID50 using a 96-well microplate. In a 25-cm^2 cell culture flask, a CV-1 cell (simian kidney derived cell), which is a proliferating cell of SV-40, was cultivated in a 10% fetal bovine serum-added MEM medium for 3 days for proliferation. Thereafter, the cells were floated with 0.5 mL of 0.05% trypsin-EDTA, to prepare a cell suspension in 25 mL of the 10% fetal bovine serum-added MEM medium.
(§2) After 90 μL of the cell suspension was added to each well of the 96-well microplate, 10 μL of the reaction mixture (the above-mentioned supernatant) was added to each well of the first column of the 96-well microplate and pipetting was performed to stir the resultant. Further, 10 μL of the solution in each well of the first column was added to each well of the second column of the microplate to perform 10-fold gradual dilution operation. This operation was repeated up to the wells of the twelfth column of the microplate. The microplate was incubated in a 5% carbon dioxide gas incubator at 37° C. for 10 days. Then, a cytopathic effect (CPE) by SV-40 was observed using an optical microscope, and TCID50 were calculated as logarithmic values (log10).
At the same time, TCID50 of a positive control, in which a phosphate buffer was added instead of the platinum compound, was calculated as a logarithmic value (log10). A value obtained by subtracting TCID50 of the inactivated solution from TCID50 of the positive control was defined as a killing effect.
In FIG. 3, the inactivation effect means a value obtained by subtracting TCID50 of the inactivated solution (logarithmic value (log10)) from TCID50 of the above-mentioned positive control (logarithmic value (log10)).

[2] = tested on: Simian Virus 40 (SV-40); test: Virus inactivation of SV-40 in RC-MAP using the blood bag system (Example 2), TCID50 on CV-1 cells; assay type: cell-based; settings: for inactivation effect (positive control TCID50 minus inactivated solution TCID50): 7 hours; for TCID50 of the inactivated solution: room temperature (in the dark) 7 hours, positive control 6.0 log10
Protocol: Blood was collected from healthy humans and RC-MAP (concentrated erythrocyte preparation) was prepared, which was introduced into the blood bag 1 (400-mL CPDA blood bag) in the blood bag system shown in FIG. 2. Thereafter, 10^8 TCID50/mL (50% infection endpoint) of SV-40 per 2 mL of RC-MAP was added to the blood bag 1 from the air-bleeding tube 10 by using a syringe, and the blood bag 1 was gently stirred.
Thereafter, the blood bag was stirred gently, and the resultant was allowed to react at room temperature (in the dark) for 7 hours to effect inactivation. After completion of the inactivation, 4 mL of the inactivated solution was sampled from the blood bag 1 and centrifuged at 3,000 rpm for 1 minute. The supernatant was used for the evaluation of virus inactivation.
as §1, §2
At the same time, TCID50 of a positive control, in which a phosphate buffer was added instead of the platinum compound, was calculated as a logarithmic value (log10). A value obtained by subtracting TCID50 of the inactivated solution from TCID50 of the positive control was defined as a killing effect (inactivation effect).
In FIG. 4, the inactivation effect means a value obtained by subtracting TCID50 of the inactivated solution (logarithmic value (log10)) from TCID50 of the above-mentioned positive control (logarithmic value (log10)).

[3] = tested on: Human Cytomegalovirus (HCMV); test: Virus inactivation of HCMV in RC-MAP (Example 3), TCID50 on HEL cells; assay type: cell-based; settings: 1.67 mM solution, 7 hours
Protocol: In the blood bag 1 (a 400-mL CPDA blood bag) in the blood bag system shown in FIG. 1, RC-MAP (concentrated erythrocyte preparation) was prepared from blood collected from healthy humans. Thereafter, 2 mL of RC-MAP was sampled in a 15-mL centrifuging tube aseptically, and 2 mL of 10^7 TCID50/mL HCMV was added thereto, followed by gentle stirring. […] After completion of the inactivation, the inactivated solution was centrifuged at 3,000 rpm for 1 minute and the supernatant was used for the evaluation of virus inactivation.
Evaluation of virus inactivation was performed by TCID50 using a 96-well microplate. In a 25-cm^2 cell culture flask, a HEL cell (primary human embryonic lung fibroblasts cell), which is a proliferating cell of HCMV, was cultivated in a 10% fetal bovine serum-added MEM medium for 3 days for proliferation. […]
After 90 μL of this cell suspension was added to each well of the 96-well microplate, 10 μL of the solution (the above-mentioned supernatant) was added to each well of the first column of the 96-well microplate and pipetting was performed to stir the resultant. […] Then, a cytopathic effect (CPE) by HCMV was observed using an optical microscope, and TCID50 was calculated as a logarithmic value (log10) . At the same time, TCID50 of a positive control, in which a phosphate buffer was added instead of the platinum compound, was calculated as a logarithmic value (log10).

[4] = tested on: Mouse Hepatitis Virus (MHV); test: Virus inactivation of MHV in RC-MAP (Example 4), TCID50 on DBT cells; assay type: cell-based; settings: 1.67 mM solution, 7 hours
Protocol: Thereafter, 2 mL of RC-MAP was sampled in a 15-mL centrifuging tube aseptically, and 2 mL of 10^7 TCID50/mL MHV was added thereto, followed by gentle stirring. […] After completion of the inactivation, the inactivated solution was centrifuged at 3,000 rpm for 1 minute and the supernatant was used for the evaluation of virus inactivation.
Evaluation of virus inactivation was performed by TCID50 using a 96-well microplate. In a 25-cm^2 cell culture flask, a DBT cell, which is a proliferating cell of MHV, was cultivated in a 5% fetal bovine serum-added MEM medium for 3 days for proliferation. Thereafter, the cells were floated with 0.5 mL of 0.05% trypsin-EDTA, to prepare a cell suspension in 25 mL of the 10% fetal bovine serum-added MEM medium.
After 90 μL of this cell suspension was added to each well of the 96-well microplate, 10 μL of the solution was added to each well of the first column of the 96-well microplate and pipetting was performed to stir the resultant. […] Then, a cytopathic effect (CPE) by MHV was observed using an optical microscope, and TCID50 was calculated as a logarithmic value (log10). At the same time, TCID50 of a positive control, in which a phosphate buffer was added instead of the platinum compound, was calculated as a logarithmic value (log10). […]

[5] = tested on: Yersinia enterocolitica; test: Bacteria inactivation of Yersinia enterocolitica in RC-MAP (Example 5), colony count; assay type: cell-based; settings: for Number of survival bacteria: RC-MAP, 7 hours
Protocol: After gentle stirring, the resultant was allowed to react at room temperature (in the dark) for 7 hours to effect inactivation.
This was cultivated at 31° C. for 2 days.
Note that solution to which no cisplatin was added was defined as a positive control. A bacteria inactivation effect was defined by a value obtained by subtracting the number of survival bacteria (logarithmic value (log10)) in cisplatin-added inactivated solution from the number of survival bacteria (logarithmic value (log10)) in the positive control.

[6] = tested on: initial culture cells of Ehrlich cancer; settings: cited from earlier work
[7] = tested on: Yersinia enterocolitica
Protocol: In the blood bag 1 (400-mL CPDA blood bag) of the blood bag system shown in FIG. 1, RC-MAP (concentrated erythrocyte preparation) was prepared from blood collected from healthy humans. […] To the resultant was added 2 mL of a 168 mM L-methionine solution having dissolved L-methionine in physiological saline, for a reaction at room temperature for 30 minutes.
Similarly, as neutralizing agents, L-methionine solutions having concentrations of 84 mM, 42 mM, 21 mM, 10.5 mM, 5.25 mM, 2.63 mM, and 1.31 mM, respectively, obtained by dissolving L-methionine in physiological saline or sodium thiosulfate solutions having concentrations of 168 mM, 84 mM, 42 mM, 21 mM, 10.5 mM, 5.25 mM, 2.63 mM, and 1.31 mM, respectively, obtained by dissolving sodium thiosulfate in physiological saline were used to effect a reaction. […] Thereafter, 10 μL of 10^8 CFU/mL Yersinia enterocolitica was added to each solution, and the number of bacterial cells after stirring was measured.
Measurement of bacterial cells was conducted on solutions obtained by repeating 3 times the 10-fold gradual dilution operation consisting of adding 1 mL of the inactivated solution to 9 mL of sterilized physiological saline, stirring the mixture by using a touch mixer, and further adding 1 mL of the resultant to 9 mL of physiological saline for dilution. […], 1 mL or 100 μL of the diluted solution in each stage was mixed in a petri dish having a diameter of 9 cm and containing 15 mL soybean casein digest agar medium. This was cultivated at 31° C. for 2 days. The number of colonies emerged was defined as number of survival bacteria, and a logarithmic value (log10) thereof was defined as a neutralization effect.

[8] = tested on: SV-40; settings: 3.5 mM cisplatin solution then 175 mM sodium thiosulfate solution
Protocol: as §1
as §2, with “[…] A value obtained by subtracting TCID50 of the inactivated solution from TCID50 of the positive control was defined as” for “Then,”, “killing effect.” for “cytopathic effect (CPE) by SV-40 was observed using an optical microscope, and TCID50 were calculated as logarithmic values (log10).”

Q: With N.N.O=C([O-])C1(C(=O)[O-])CCC1.[Pt+2] [carboplatin] as the molecule, how does the “inactivation effect (positive control TCID50 minus inactivated solution TCID50)” value ([1]; 3.5 mM solution) read?
A: 1.00 log10

Q: And the “TCID50 of the inactivated solution” value ([1]; 3.5 mM solution)?
A: 5.50 log10

Q: And the “inactivation effect (positive control TCID50 minus inactivated solution TCID50)” value ([2]; 3.5 mM solution)?
A: 1.5 log10

Q: And the “TCID50 of the inactivated solution” value ([2]; 3.5 mM solution)?
A: 4.5 log10

Q: With N.N.[Cl][Pt][Cl] [cisplatin] as the molecule, how does the “inactivation effect (positive control TCID50 minus inactivated solution TCID50)” value ([1]; 1.67 mM solution) read?
A: 5.25 log10

Q: What about the “TCID50 of the inactivated solution” value ([1]; 1.67 mM solution) of the same molecule?
A: 1.25 log10

Q: What about the “inactivation effect (positive control TCID50 minus inactivated solution TCID50)” value ([2]; 1.67 mM solution) of the same molecule?
A: 5.0 log10

Q: And the “TCID50 of the inactivated solution” value ([2]; 1.67 mM solution)?
A: 1.0 log10

Q: What about the “HCMV killed (anti-HCMV inactivation effect)” value [3] of the same molecule?
A: 4.00 log10

Q: And the “MHV killed (MHV inactivation effect)” value [4]?
A: 4.00 log10

Q: What about the Bacteria killing effect ([5]; cisplatin 0.0209 mM) of the same molecule?
A: 0.18 log10

Q: What about the “Number of survival bacteria” value ([5]; cisplatin 0.0209 mM) of the same molecule?
A: 4.82 log10

Q: And the Bacteria killing effect ([5]; cisplatin 0.042 mM)?
A: 0.48 log10

Q: What about the “Number of survival bacteria” value ([5]; cisplatin 0.042 mM) of the same molecule?
A: 4.52 log10

Q: What about the Bacteria killing effect ([5]; cisplatin 0.083 mM) of the same molecule?
A: 1.21 log10

Q: And the “Number of survival bacteria” value ([5]; cisplatin 0.083 mM)?
A: 3.79 log10

Q: What about the Bacteria killing effect ([5]; cisplatin 0.17 mM) of the same molecule?
A: 2.20 log10

Q: And the “Number of survival bacteria” value ([5]; cisplatin 0.17 mM)?
A: 2.80 log10

Q: What about the Bacteria killing effect ([5]; cisplatin 0.33 mM) of the same molecule?
A: 2.73 log10

Q: What about the “Number of survival bacteria” value ([5]; cisplatin 0.33 mM) of the same molecule?
A: 2.27 log10

Q: And the Bacteria killing effect ([5]; cisplatin 0.67 mM)?
A: 3.52 log10

Q: And the “Number of survival bacteria” value ([5]; cisplatin 0.67 mM)?
A: 1.48 log10

Q: What about the Bacteria killing effect ([5]; cisplatin 1.33 mM) of the same molecule?
A: 4.94 log10

Q: What about the “Number of survival bacteria” value ([5]; cisplatin 1.33 mM, positive control 5.00 log10) of the same molecule?
A: 0.06 log10

Q: What about the “effective concentration against cancer cells (antiviral activity (IC50))” value [6] of the same molecule?
A: 0.25 µg/mL

Q: With CSCC[C@H](N)C(=O)O [methionine, L-methionine] as the molecule, how does the “Number of survival bacteria (neutralization effect)” value (“Number … (neutralization effect)” below) ([7]; methionine 0.44 mM after 4.00 mM cisplatin solution) read?
A: 0.34 log10

Q: What about the “Number … (neutralization effect)” value ([7]; methionine 0.88 mM after 4.00 mM cisplatin solution) of the same molecule?
A: 0.73 log10

Q: And the “Number … (neutralization effect)” value ([7]; methionine 1.75 mM after 4.00 mM cisplatin solution)?
A: 0.89 log10

Q: And the “Number … (neutralization effect)” value ([7]; methionine 3.5 mM after 4.00 mM cisplatin solution)?
A: 1.22 log10

Q: What about the “Number … (neutralization effect)” value ([7]; methionine 7 mM after 4.00 mM cisplatin solution) of the same molecule?
A: 1.43 log10

Q: What about the “Number … (neutralization effect)” value ([7]; methionine 14 mM after 4.00 mM cisplatin solution) of the same molecule?
A: 1.87 log10

Q: What about the “Number … (neutralization effect)” value ([7]; methionine 28 mM after 4.00 mM cisplatin solution) of the same molecule?
A: 3.36 log10

Q: And the “Number … (neutralization effect)” value ([7]; methionine 56 mM after 4.00 mM cisplatin solution, 30 minutes, same as without cisplatin)?
A: 5.1 log10

Q: Which results are given for [NH2][Pt]1([NH2])[O]CC(=O)[O]1 [nedaplatin]?
A: inactivation effect (positive control TCID50 minus inactivated solution TCID50) ([1]; 3.5 mM solution): 4.25 log10; TCID50 of the inactivated solution ([1]; 3.5 mM solution): 2.25 log10; inactivation effect (positive control TCID50 minus inactivated solution TCID50) ([2]; 3.5 mM solution): 3.5 log10; TCID50 of the inactivated solution ([2]; 3.5 mM solution): 2.5 log10

Q: With O=S([O-])([O-])=S.[Na+].[Na+] [sodium thiosulfate] as the molecule, how does the “Number … (neutralization effect)” value ([7]; sodium thiosulfate 0.44 mM after 4.00 mM cisplatin solution) read?
A: 0.44 log10

Q: What about the “Number … (neutralization effect)” value ([7]; sodium thiosulfate 0.88 mM after 4.00 mM cisplatin solution) of the same molecule?
A: 0.86 log10

Q: And the “Number … (neutralization effect)” value ([7]; sodium thiosulfate 1.75 mM after 4.00 mM cisplatin solution)?
A: 1.28 log10

Q: And the “Number … (neutralization effect)” value ([7]; sodium thiosulfate 3.5 mM after 4.00 mM cisplatin solution)?
A: 1.51 log10

Q: What about the “Number … (neutralization effect)” value ([7]; sodium thiosulfate 7 mM after 4.00 mM cisplatin solution) of the same molecule?
A: 1.98 log10

Q: What about the “Number … (neutralization effect)” value ([7]; sodium thiosulfate 14 mM after 4.00 mM cisplatin solution) of the same molecule?
A: 2.35 log10

Q: What about the “Number … (neutralization effect)” value ([7]; sodium thiosulfate 28 mM after 4.00 mM cisplatin solution) of the same molecule?
A: 4.22 log10

Q: What about the “Number … (neutralization effect)” value ([7]; sodium thiosulfate 56 mM after 4.00 mM cisplatin solution, 30 minutes, same as without cisplatin) of the same molecule?
A: 5.1 log10

Q: What about the “killing effect (inactivation effect of SV-40) after neutralization” value [8] of the same molecule?
A: no killing effect

Q: And the “TCID50 after inactivator and neutralizing agent” value ([8]; 30 minutes, positive control 6.00 log10)?
A: 6.00 log10
